Source: patent publication US20250235486A1, “Method of Producing Insulin-Producing Cells” (Monash University, priority 2022, published 2025)

Assays:
Type in all cases: cell-based
[1] = test system: human pancreatic exocrine cells; experiment: qRT-PCR gene expression in ex vivo pancreatic exocrine cells from non-diabetic and type 1 diabetic donors
Text: Islets were purified by intraductal perfusion and digestion of the pancreases with collagenase AF-1 (SERVA/Nordmark, Germany) (Ricordi C et al. Automated method for isolation of human pancreatic islets. Diabetes 37, 413-420 (1988)), followed by purification using Ficoll density gradients (Barbaro B, et al. Improved human pancreatic islet purification with the refined UIC—UB density gradient. Transplantation 84, 1200-1203 (2007)). Purified islets, from low density gradient fractions, and acinar/ductal tissue, from high density fractions, were cultured in Miami Media 1A (Mediatech/Corning 98-021, USA) supplemented with 2.5% human serum albumin (Australian Red Cross, Melbourne, VIC, Australia), in a 37° C., 5% CO2 incubator.
Total RNA from human ex vivo pancreatic cells was isolated using TRIzol (Invitrogen) and RNeasy Kit (QIAGEN) including a DNase treatment. First-strand cDNA synthesis was performed using a high-capacity cDNA Reverse Transcription Kit (Applied Biosystems) according to the manufacturer's instructions. cDNA primers were designed using oligoperfect designer (Thermo Fisher Scientific), as shown in Table 2 and Table 3. Briefly, quantitative RT-PCR analyses were undertaken using the PrecisionFast 2× qPCR Master Mix (Primerdesign) and primers using Applied Biosystems 7500 Fast Real-Time PCR System. Each qPCR reaction contained: 6.5 μl qPCR Master Mix, 0.5 μl of forward and reverse primers, 3.5 μl H2O and 2 μl of previously synthesised cDNA, diluted 1/20. Expression levels of specific genes were tested and normalised to 18s ribosomal RNA housekeeping gene.
All cell incubations were performed in Miami Media 1A (Mediatech/Corning 98-021, USA) supplemented with 2.5% human serum albumin (Australian Red Cross, Melbourne, VIC, Australia), in a cell culture incubator at 37° C. in an atmosphere of 5% CO2 for 48 hr using non-treated 6 well culture plates (Corning).

[2] = test system: H3K27me3 content at promoters in human exocrine cells; experiment: Chromatin immunoprecipitation (anti-H3K27me3) qPCR in exocrine cells of a non-diabetic donor; conditions: GSK126 vs DMSO
Method: Chromatin immunoprecipitation assays in human exocrine cells were performed previously described (Rafehi H, et al. Vascular histone deacetylation by pharmacological HDAC inhibition. Genome Res 24, 1271-1284 (2014); Pirola L, et al. Genome-wide analysis distinguishes hyperglycemia regulated epigenetic signatures of primary vascular cells. Genome Res 21, 1601-1615 (2011)). Cells were fixed for 10 minutes with 1% formaldehyde and quenched for 10 mins with glycine (0.125 M) solution. Fixed cells were resuspended in sodium dodecyl (lauryl) sulfate (SDS) lysis buffer (1% SDS, 10 mM EDTA, 50 mM Tris-HCl pH 8.1) including a protease inhibitor cocktail (Roche Diagnostics GmBH, Mannheim, Germany) and homogenized followed by incubation on ice for 5 minutes. […] H3K27me3 content at the promoters of the INS, INS-IGF2, NGN3 and PDX1 genes were assessed by qPCR using primers designed from the integrative ENCODE resource (Zhang J, et al. An integrative ENCODE resource for cancer genomics. Nat Commun 11, 3696 (2020)).
Proteins were cross-linked to DNA and soluble chromatin fractionated by sonication. […] DNA was assessed by qPCR using amplimers specifically designed to detect human Ins chromatin domain genes (FIG. 5a). […]

[3] = test system: human exocrine (acinar and ductal) cells; experiment: qRT-PCR gene expression in human exocrine (acinar and ductal) cells from a non-diabetic donor; conditions: 48 hours: GSK126 10 μM, CPI-1205 5 μM, ursolic acid 5 μM, GSK343 5 μM, EPZ-6438 5 μM
Method: (§1) Exocrine cells from a non-diabetic human and a marmoset were cultured and assayed in Miami/CMRL medium. The human exocrine cells were sourced from the Islet Transplant Unit of St Vincent's Institute for Medical Research. The marmoset exocrine cells were sourced from the Australian Regenerative Medicine Institute (ARMI), Monash University. Miami media is based on CMRL 1066 media (Connaught Medical Research Lab) supplemented with: Insulin, Transferrin & Selenium (ITS), human serum, Vitamin E, sodium pyruvate, zinc and HEPES. Pharmacological inhibition of EZH2 and gene expression analysis were performed as described in Example 1.

[4] = test system: marmoset exocrine (acinar and ductal) cells; experiment: qRT-PCR gene expression in marmoset exocrine (acinar and ductal) cells; conditions: 48 hours: GSK126 10 μM, ursolic acid 5 μM
Method: as §1

[5] = test system: Human pancreatic ductal epithelial cells; experiment: qRT-PCR after 2- and 7-day EZH2 inhibitor stimulation of human pancreatic ductal epithelial cells; conditions: GSK-126 10 μM
Method: Human pancreatic ductal epithelial cells were purchased from AddexBio and cultured according to the recommended protocols. Cells were cultured in complete Keratinocyte Serum-Free Media (supplemented with human recombinant EGF, Bovine Pituitary Extract and Antibiotic-Antimycotic [Gibco]. All cell cultures were grown and maintained in a 37° C., 5% C02 environment using a tissue culture incubator. Once cells reached 70-80% confluency, passaging was performed using 0.05% Trypsin EDTA (Sigma). […] Vehicle control was DMSO. Cells were treated over 2 main timepoints, with harvests occurring following 2, and 7 days. For the 2-day time point, cells were seeded and left to adhere in plates for 24 hours. Treatment was initiated with the first dose made up in complete K-SFM. The second dose was delivered 24 hours later following a media change. For the longer period of 7 days, cells were initially seeded in 10 cm plates, with doses delivered on alternate days following the initial period of 24 hours. […] Ct values of experimental genes were normalized to housekeeping gene [MUT]. Fold change of mRNA abundance was calculated by normalizing drug treated values to vehicular controls. […] RNA was isolated using the RNeasy Kit according to the manufacturer's directions. Following measurement of RNA concentration using a QIAxpert System, 1 μg of RNA was used for cDNA synthesis by a high-capacity cDNA Reverse Transcription Kit (Applied Biosystems). The resulting cDNA reaction mix was diluted 1:6 to make up the final template cDNA used subsequently. […] Ct values of experimental genes were normalized to housekeeping gene [MUT]. Fold change of mRNA abundance was calculated by normalizing drug treated values to vehicular controls.

[6] = test system: Human pancreatic ductal epithelial cells; experiment: Glucose stimulated insulin secretion assay (ELISA)
Method: 5×10^5 cells were seeded in 12-well plates and allowed to adhere for 24 hours. […] Next, cells were cultured in 28 mM (High) glucose Krebs Buffer solution and incubated for 1 hour to obtain the glucose stimulated insulin secretion. Supernatant was collected and Ultrasensitive Insulin ELISA (Mercodia) was used to determine the concentration of insulin according to manufacturer's instructions. Fold change of insulin secreted by cells were calculated by adjusting to cells stimulated with EZH2 inhibitors for insulin concentrations compared to control.

[7] = 10 mM GSK126 (so in the source), 48 hr
[8] = 10 mM GSK126 (so in the source), 48 hr, non-diabetic and T1D donors
[9] = 2 days, EPZ6438 1 μM, Triptolide 20 nM
[10] = 7 days, EPZ6438 1 μM, Triptolide 20 nM

## CC[C@H](C)n1cc(C)c2c(C(=O)NCc3c(C)cc(C)[nH]c3=O)cc(-c3ccc(N4CCNCC4)nc3)cc21 [GSK126, N-[(1,2-Dihydro-4,6-dimethyl-2-oxo-3-pyridinyl)methyl]-3-methyl-1-[(1S)-1-methylpropyl]-6-[6-(1-piperazinyl)-3-pyridinyl]-1H-indole-4-carboxamide]
[1]; [7]
  Amy2A (acinar marker) expression: did not significantly alter
  Ck19 (ductal marker) expression: did not significantly alter
  Ki67 (proliferative marker) expression: increased
  Txnip (glucose-sensor) expression: did not significantly alter
[1]; [8]
  Ins gene expression: significant expression
  Ngn3 mRNA expression: restored
  Pdx1 mRNA expression: restored
  Sox9 mRNA expression: restored
[1]; ex vivo exocrine cells, GSK126
  MafA gene expression: restored
  Nkx6.1 gene expression: restored
  Sox11 gene expression: restored
[2]; non-diabetic donor (2)
  H3K27me3 content at the Ins and Igf2AS promoter (R1-R3) regions: Significant reduction
[2]; non-diabetic exocrine cells
  H3K27me3 content on the Ngn3 promoter R1: marginally affected
[3]
  mRNA expression of Insulin, Pdx1 and Ngn3: stimulated expression of one, two or all of Insulin, Pdx1 and Ngn3
[4]
  Insulin mRNA expression: stimulated expression
  Pdx1 mRNA expression: stimulated expression
[5]; 2-day point, Triptolide 20 nM
  MAFA mRNA levels: increased in a statistically significant manner
[5]; 2 days
  Alpha-amylase (AMY2A) transcripts: increased significantly
[5]; [9]
  CK19 expression: statistically significant decreases
  NGN3 mRNA levels: significantly elevated
  insulin transcripts, mature mRNA (INS): elevations
  insulin transcripts, unprocessed heterogenous nuclear form (INS hnRNA): elevations
[5]; [10]
  NGN3 mRNA levels: Further increases
  insulin transcripts, mature mRNA (INS): even further increases
  insulin transcripts, unprocessed heterogenous nuclear form (INS hnRNA): even further increases
[6]; 2-day stimulation (FIG. 13d), GSK126 10 μM, EPZ6438 1 μM, Triptolide 20 nM, not observed in DMSO control
  insulin concentration after incubation in high-glucose media (28 mM glucose, 1 hour): significant elevations
[6]; 7 days stimulation (FIG. 13e)
  Release of insulin (glucose stimulated): maintained
